Test systems include HOP-62; CAKI-1; SK-OV-3; CCRF-CEM; OVCAR-4; SF-295; KM12; U-251; SW-620; SF-539; NCI-H522; UO-31; M19-MEL; LOX IMVI; HL-60; SK-MEL-2; HCT-15.
What all share (experiment): inhibition of tumour cell growth, NCI panel, 48 h

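Five concentrations, 48 hours, 96-well plates. Here, GI50 denotes the concentration required for 50% inhibition of growth.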 Calls of active or inactive are those of the source. Cut-off read from the data, not from the text of the source: active = GI50 up to about 1.1 µM and inactive = higher. Bounds are passed on as bounds.

With `CCCCCCCCCCn1cccc1/C=C/c1ccc(/C=C/c2cccn2CCCCCCCCCC)cc1`, the GI50 in the test with HOP-62, in the test with CAKI-1, in the test with SK-OV-3, in the test on CCRF-CEM, in the test with OVCAR-4 and in the test with SF-295 was > 100 µM (inactive) in each case. Besides, the GI50 in the test on KM12 was > 100 µM (inactive); in the test on U-251 it was > 100 µM (inactive); in the test on SW-620 it was > 100 µM (inactive); in the test on SF-539, > 100 µM (inactive); in the test on NCI-H522 it was > 100 µM (inactive); in the test on UO-31, 88.7 µM (inactive). In addition, the GI50 in the test with M19-MEL, in the test with LOX IMVI and in the test with HL-60 was > 100 µM (inactive) throughout.

In the case of `COc1ccc(C(=O)C=C2NCCN2)cc1`, the GI50 in the test with HOP-62, in the test with CAKI-1, in the test on SK-OV-3, in the test on CCRF-CEM, with OVCAR-4 and in the test on SF-295 was > 100 µM (inactive) in each case. The GI50 in the test with KM12, with U-251, in the test with SW-620, in the test on SF-539, with NCI-H522 and with UO-31 was > 100 µM (inactive) each time. The GI50 in the test with M19-MEL, with SK-MEL-2, in the test on LOX IMVI and in the test on HL-60 was > 100 µM (inactive) each time.

For the molecule `CN(C)/N=N/c1c[nH]nc1C(N)=O`, the GI50 with HOP-62, in the test on CAKI-1, in the test on SK-OV-3, in the test on CCRF-CEM, in the test on OVCAR-4 and in the test on SF-295 was > 100 µM (inactive) in each case. In addition, the GI50 is > 100 µM (inactive) with KM12; > 100 µM (inactive) in the test on U-251; > 100 µM (inactive) in the test on SW-620; > 100 µM (inactive) in the test on SF-539; 42.9 µM (inactive) with NCI-H522; > 100 µM (inactive) in the test with M19-MEL. For the same molecule, the GI50 was 64.1 µM in the test on HCT-15, > 100 µM (inactive) in the test on SK-MEL-2, 53.1 µM (inactive) in the test on LOX IMVI and > 100 µM (inactive) with HL-60.

Regarding `N#CC1(CCCCl)CCCCC1`, the GI50 with SK-OV-3, in the test with CCRF-CEM, in the test on SF-295, in the test on KM12, in the test with U-251 and with SW-620 was > 100 µM (inactive) each time. Besides, the GI50 in the test on SF-539 is > 100 µM (inactive); in the test on NCI-H522, > 100 µM (inactive); in the test on UO-31, > 100 µM (inactive); in the test with M19-MEL, > 100 µM (inactive); in the test on HCT-15, above 100 µM; with SK-MEL-2 it was > 100 µM (inactive). Besides, the GI50 in the test on LOX IMVI and in the test with HL-60 was > 100 µM (inactive) each time.

With `C=CCOC(C)n1c(C)c(Br)c(=O)[nH]c1=O` (stereo not given), the GI50 is > 100 µM (inactive) in the test with CAKI-1; 65.2 µM (inactive) in the test with SK-OV-3; > 100 µM (inactive) with CCRF-CEM; > 100 µM (inactive) in the test on SF-295; > 100 µM (inactive) with KM12; > 100 µM (inactive) with U-251. The GI50 in the test on SW-620 is > 100 µM (inactive); with SF-539 it was > 100 µM (inactive); with NCI-H522, > 100 µM (inactive); in the test with UO-31, > 100 µM (inactive); with M19-MEL it was > 100 µM (inactive); with HCT-15, above 100 µM. Besides, the GI50 in the test with SK-MEL-2, in the test with LOX IMVI and in the test with HL-60 was > 100 µM (inactive) in each case.

With `Clc1ccc(C2SCc3nc4ccccc4n32)c(Cl)c1` (stereo not given), the GI50 was 14 µM (inactive) in the test on HOP-62; 25.8 µM (inactive) in the test with SK-OV-3; 12.6 µM (inactive) with CCRF-CEM; 8.36 µM (inactive) with SF-295; 14.7 µM (inactive) in the test on KM12; 17.9 µM (inactive) in the test with U-251. The GI50 is 9.16 µM (inactive) in the test with SW-620; 17.5 µM (inactive) in the test with SF-539; 15.7 µM (inactive) in the test on NCI-H522; 12.1 µM (inactive) in the test on UO-31; 14.8 µM (inactive) in the test on M19-MEL; 15.6 µM in the test on HCT-15. Also, the GI50 in the test on SK-MEL-2 is 16.5 µM (inactive); in the test with LOX IMVI it was 15.3 µM (inactive); in the test with HL-60, 8.22 µM (inactive).

As to `COC12OCCN(C)C1=CC(=O)C1=NNC(C)C12` (stereo not given), the GI50 in the test on CAKI-1, in the test with SK-OV-3, in the test on CCRF-CEM, with SF-295, in the test with KM12 and in the test on U-251 was > 100 µM (inactive) in each case. Moreover, the GI50 in the test on SW-620 was > 100 µM (inactive); with SF-539, > 100 µM (inactive); in the test on NCI-H522, > 100 µM (inactive); in the test with UO-31 it was > 100 µM (inactive); with M19-MEL, > 100 µM (inactive); with HCT-15 it was above 100 µM. Besides, the GI50 in the test on LOX IMVI and in the test with HL-60 was > 100 µM (inactive) in each case.

For `COc1ccc(C=C(c2ccc(OCc3ccccc3)cc2)c2ccc(OCc3ccccc3)cc2)cc1`, the GI50 in the test on HOP-62, with CAKI-1, in the test on SK-OV-3, in the test with OVCAR-4, with SF-295 and with KM12 was > 100 µM (inactive) throughout. Also, the GI50 in the test with U-251, in the test with SW-620, with SF-539, in the test on NCI-H522, in the test on UO-31 and in the test with M19-MEL was > 100 µM (inactive) each time. Besides, the GI50 with HCT-15 is above 100 µM; with SK-MEL-2, > 100 µM (inactive); with LOX IMVI it was > 100 µM (inactive); with HL-60, > 100 µM (inactive).

With `N#C/C(=C\c1cc(O)ccc1O)C(N)=O`, the GI50 is > 100 µM (inactive) in the test on HOP-62; 46.2 µM (inactive) with CAKI-1; 67.6 µM (inactive) in the test on SK-OV-3; 21.5 µM (inactive) with CCRF-CEM; 54 µM (inactive) in the test with OVCAR-4; 47.6 µM (inactive) with SF-295. In addition, the GI50 in the test with KM12 is 46.1 µM (inactive); in the test with U-251, 98.4 µM (inactive); in the test with SW-620, 49.9 µM (inactive); in the test with SF-539, 50.7 µM (inactive); with NCI-H522, 18.2 µM (inactive); in the test on UO-31, 35.7 µM (inactive). Also, the GI50 is 51.3 µM (inactive) with M19-MEL, 44.2 µM in the test with HCT-15, 42.5 µM (inactive) in the test with SK-MEL-2 and 14 µM (inactive) in the test on HL-60.

On to `NC(CCCNCc1ccccc1)C(=O)O` (stereo not given), for which the GI50 is > 100 µM (inactive) with HOP-62; > 100 µM (inactive) in the test with CAKI-1; > 100 µM (inactive) in the test with SK-OV-3; > 100 µM (inactive) in the test on CCRF-CEM; > 100 µM (inactive) with OVCAR-4; > 10 µM (inactive) in the test with SF-295. Also, the GI50 in the test with KM12, with SW-620, in the test with SF-539, with NCI-H522, in the test with UO-31 and in the test on M19-MEL was > 100 µM (inactive) in each case. In addition, the GI50 with HCT-15 is above 100 µM; in the test with SK-MEL-2 it was > 100 µM (inactive); in the test on LOX IMVI, > 100 µM (inactive); in the test with HL-60, > 100 µM (inactive).

On to `Cc1c2ccncc2c(C)c2c1[nH]c1ccc(OC(C)(C)C)cc12`, for which the GI50 in the test on HOP-62 is 2.88 µM (inactive); with CAKI-1 it was 1.81 µM (inactive); with SK-OV-3 it was 4.42 µM (inactive); with CCRF-CEM it was 2.07 µM (inactive); in the test on OVCAR-4 it was 1.98 µM (inactive); in the test on SF-295, 2.07 µM (inactive). The GI50 was 2.82 µM (inactive) in the test on U-251; 2.14 µM (inactive) in the test with SW-620; 1.57 µM (inactive) in the test with SF-539; 2.44 µM (inactive) in the test with NCI-H522; 1.91 µM (inactive) with UO-31; 2.14 µM (inactive) in the test with M19-MEL. The GI50 in the test on SK-MEL-2 was 2.03 µM (inactive); with LOX IMVI, 2.24 µM (inactive); in the test with HL-60, 1.81 µM (inactive).

As for `CC(=O)OC1CC2C(C)(C)C(=O)C=C[C@]2(C)C2CCC3(C)C(=CCC3[C@H](CO)C[C@H](O)C(=O)C(C)(C)O)[C@]12C` (stereo not given in full), the GI50 in the test on CAKI-1 was 15.9 µM (inactive); with SK-OV-3, 13.7 µM (inactive); in the test with CCRF-CEM, 17.9 µM (inactive); in the test on OVCAR-4 it was 59.8 µM (inactive); in the test on SF-295, 12.9 µM (inactive); in the test on KM12, 19.1 µM (inactive). Moreover, the GI50 in the test with U-251 is 16.7 µM (inactive); in the test with SW-620, 21.1 µM (inactive); in the test on SF-539, 18.7 µM (inactive); in the test on NCI-H522, 23.6 µM (inactive); with UO-31 it was 23.7 µM (inactive); in the test with M19-MEL it was 35.8 µM (inactive). Besides, the GI50 was 17.8 µM in the test with HCT-15, 20.7 µM (inactive) in the test on SK-MEL-2, 18.2 µM (inactive) in the test with LOX IMVI and 19.5 µM (inactive) in the test on HL-60.

Take `O=C(O)c1cc(S(=O)(=O)N/N=C\c2c3ccccc3[n+]([O-])c3ccccc23)ccc1O`: the GI50 is 7.48 µM (inactive) in the test with HOP-62; 45.8 µM (inactive) in the test on CAKI-1; 38.3 µM (inactive) with SK-OV-3; 8.57 µM (inactive) with CCRF-CEM; 5.18 µM (inactive) with OVCAR-4; 4.45 µM (inactive) in the test on SF-295. Also, the GI50 with KM12 is 23.8 µM (inactive); in the test with U-251, 23.2 µM (inactive); in the test on SW-620, 11.3 µM (inactive); in the test with NCI-H522 it was 8.3 µM (inactive); with UO-31 it was 17.7 µM (inactive); with M19-MEL, 13.3 µM (inactive). The GI50 with HCT-15 is 5.96 µM; in the test on SK-MEL-2, 16.9 µM (inactive); with LOX IMVI it was 8 µM (inactive); in the test with HL-60, 4.07 µM (inactive).

The values above are taken from ChEMBL document CHEMBL1201862, “PubChem BioAssay data set” (2004).
